Measured values published in patent US9302999B2, “Substituted triazoles as herbicides” (E. I. DU PONT DE NEMOURS AND COMPANY, priority 2012, dated 2016).
Where two headings read alike, the source gives them in different places.

How the values were obtained:
Type in all cases: in vivo
[1] = system: crabgrass, large (large crabgrass, Digitaria sanguinalis); experiment: Test A pre-/postemergence: crabgrass, large; conditions: Digitaria sanguinalis, 240 h; for pest or weed control at 125 g/ha: 125 g ai/ha; for pest or weed control at 500 g/ha: 500 g ai/ha
Method in brief: (§1)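 Injury was scored visually on a 0 (no effect) to 100 (complete control) scale versus untreated controls roughly ten days after treatment in the greenhouse. Compounds, formulated in surfactant-containing non-phytotoxic solvent, went on as soil-directed preemergence spray or postemergence to one- to two-leaf plants 2–10 cm tall.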

[2] = system: foxtail, giant (giant foxtail, Setaria faberii); experiment: Test A pre-/postemergence: foxtail, giant; conditions: Setaria faberi, 240 h; for pest or weed control at 125 g/ha: 125 g ai/ha; for pest or weed control at 500 g/ha: 500 g ai/ha
Method in brief: as §1

[3] = system: wheat (Triticum aestivum); experiment: Test A pre-/postemergence: wheat; conditions: Triticum aestivum, 240 h; for plant injury at 125 g/ha: 125 g ai/ha; for plant injury at 500 g/ha: 500 g ai/ha
Method in brief: as §1

corn (Zea mays) = experiment: Test A pre-/postemergence: corn; conditions: Zea mays, 240 h; for Corn plant response rating (crop injury, 0 = no effect, 100 = complete kill) at 125 g/ha: 125 g ai/ha
Method in brief: as §1

[4] = system: sedge, umbrella (small-flower umbrella sedge Cyperus difformis); experiment: Test B flooded paddy: sedge, umbrella; conditions: Flood; 125 g ai/ha; applied to paddy water at 2-leaf stage; visually evaluated after 13 to 15 days
Method in brief: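 Greenhouse assay lasting 13 to 15 days. Treatment was into water flooding pots 3 cm deep, at the 2-leaf stage, with that level sustained afterwards. Scores compare treated with control plants visually, 100 denoting complete control and 0 no effect; a dash marks no test result.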

[5] = system: ryegrass, Italian (Italian ryegrass, Lolium multiflorum); experiment: Test C pre-/postemergence: ryegrass, Italian
Method in brief: (§2)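 Visual injury scored 0–100 (100 = complete control) against untreated controls after 13–15 greenhouse days. Surfactant-containing solvent formulations applied either to soil after sowing (loam/sand) or over 1- to 4-leaf plants, 2–18 cm tall.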

[6] = system: johnsongrass (Sorghum halepense); experiment: Test C pre-/postemergence: johnsongrass
Method in brief: as §2

[7] = system: lambsquarters (Chenopodium album); experiment: Test C pre-/postemergence: lambsquarters
Method in brief: as §2

[8] = system: velvetleaf (Abutilon theophrasti); experiment: Test C pre-/postemergence: velvetleaf
Method in brief: as §2

[9] = Postemergence, 31 g ai/ha, scale 0 to 100 (0 no effect, 100 complete control)
[10] = Postemergence, 62 g ai/ha, scale 0 to 100 (0 no effect, 100 complete control)
[11] = Postemergence, 125 g ai/ha, scale 0 to 100, 0 no effect, 100 complete control
[12] = Postemergence, 250 g ai/ha, scale 0 to 100
[13] = Preemergence, 31 g ai/ha, scale 0 (no effect) to 100 (complete control)
[14] = Preemergence, 62 g ai/ha, scale of 0 to 100, 0 is no effect, 100 is complete control
[15] = Preemergence, 125 g ai/ha, scale 0 to 100, 0 no effect, 100 complete control
[16] = Preemergence, 250 g ai/ha, scale 0 to 100, 0 no effect, 100 complete control

Structure (SMILES): CCOc1nn(-c2ccc(C(F)(F)F)cc2)nc1Cc1ccnc(C(F)(F)F)c1 [Compound 164, 4-[[5-ethoxy-2-[4-(trifluoromethyl)phenyl]-2H-1,2,3-triazol-4-yl]methyl]-2-(trifluoromethyl)pyridine]
- pest or weed control at 125 g/ha ([1]; post-emergence, Postemergence, 0 to 100 scale, 0 is no effect, 100 is complete control, read-out: Plant response rating, Crabgrass, Large): 90%
- pest or weed control at 500 g/ha ([1]; post-emergence, Postemergence, 0 to 100 scale, 0 is no effect, 100 is complete control, read-out: Crabgrass, Large plant response rating): 90%
- pest or weed control at 125 g/ha ([1]; pre-emergence, Preemergence, 0 to 100 scale where 0 is no effect and 100 is complete control, read-out: Plant response rating, Crabgrass, Large): 100%
- pest or weed control at 500 g/ha ([1]; pre-emergence, Preemergence, 0 to 100 scale (0 no effect, 100 complete control), read-out: Plant response rating, Crabgrass, Large): 100%
- pest or weed control at 125 g/ha ([2]; post-emergence, Postemergence, 0 to 100 scale, 0 is no effect, 100 is complete control, read-out: Plant response rating, Foxtail, Giant): 90%
- pest or weed control at 500 g/ha ([2]; post-emergence, Postemergence, 0 to 100 scale, 0 is no effect, 100 is complete control, read-out: Foxtail, Giant plant response rating): 90%
- pest or weed control at 125 g/ha ([2]; pre-emergence, Preemergence, 0 to 100 scale where 0 is no effect and 100 is complete control, read-out: Plant response rating, Foxtail, Giant): 100%
- pest or weed control at 500 g/ha ([2]; pre-emergence, Preemergence, 0 to 100 scale (0 no effect, 100 complete control), read-out: Plant response rating, Foxtail, Giant): 100%
- plant injury at 125 g/ha ([3]; post-emergence, Postemergence, 0 to 100 scale, 0 is no effect, 100 is complete control, read-out: Plant response rating, Wheat): 50%
- plant injury at 500 g/ha ([3]; post-emergence, Postemergence, 0 to 100 scale, 0 is no effect, 100 is complete control, read-out: Wheat plant response rating): 60%
- plant injury at 125 g/ha ([3]; pre-emergence, Preemergence, 0 to 100 scale where 0 is no effect and 100 is complete control, read-out: Plant response rating, Wheat): 50%
- plant injury at 500 g/ha ([3]; pre-emergence, Preemergence, 0 to 100 scale (0 no effect, 100 complete control), read-out: Plant response rating, Wheat): 60%
- Corn plant response rating (crop injury, 0 = no effect, 100 = complete kill) at 125 g/ha (corn (Zea mays); post-emergence, Postemergence, 0 to 100 scale, 0 is no effect, 100 is complete control): 30%
- plant injury at 500 g/ha (corn (Zea mays); post-emergence, Postemergence, 500 g ai/ha, 0 to 100 scale, 0 is no effect, 100 is complete control, read-out: Corn plant response rating): 40%
- Corn plant response rating (crop injury, 0 = no effect, 100 = complete kill) at 125 g/ha (corn (Zea mays); pre-emergence, Preemergence, 0 to 100 scale where 0 is no effect and 100 is complete control): 30%
- Corn plant response rating (crop injury, 0 = no effect, 100 = complete kill) at 500 g/ha (corn (Zea mays); pre-emergence, Preemergence, 500 g ai/ha, 0 to 100 scale (0 no effect, 100 complete control)): 30%
- Plant response rating, Sedge, Umbrella (0 to 100 scale, 0 is no effect, 100 is complete control) [4]: 75
- Plant response rating, Ryegrass, Italian [5, 9]: 5
- Plant response rating, Ryegrass, Italian [5, 10]: 5
- Plant response rating, Ryegrass, Italian [5, 11]: 5
- Plant response rating, Ryegrass, Italian [5, 12]: 5
- Plant response rating, Ryegrass, Italian [5, 13]: 5
- Plant response rating, Ryegrass, Italian [5, 14]: 10
- Plant response rating, Ryegrass, Italian [5, 15]: 55
- Plant response rating, Ryegrass, Italian [5, 16]: 75
- Plant response rating, Johnsongrass [6, 9]: 10
- Plant response rating, Johnsongrass [6, 10]: 10
- Plant response rating, Johnsongrass [6, 11]: 10
- Plant response rating, Johnsongrass [6, 12]: 10
- Plant response rating, Johnsongrass [6, 13]: 5
- Plant response rating, Johnsongrass [6, 14]: 15
- Plant response rating, Johnsongrass [6, 15]: 20
- Plant response rating, Johnsongrass [6, 16]: 40
- Plant response rating, Lambsquarters [7, 9]: 50
- Plant response rating, Lambsquarters [7, 10]: 55
- Plant response rating, Lambsquarters [7, 11]: 60
- Plant response rating, Lambsquarters [7, 12]: 70
- Plant response rating, Lambsquarters [7, 13]: 85
- Plant response rating, Lambsquarters [7, 14]: 85
- Plant response rating, Lambsquarters [7, 15]: 95
- Plant response rating, Lambsquarters [7, 16]: 95
- Plant response rating, Velvetleaf [8, 9]: 25
- Plant response rating, Velvetleaf [8, 10]: 30
- Plant response rating, Velvetleaf [8, 11]: 40
- Plant response rating, Velvetleaf [8, 12]: 40
- Plant response rating, Velvetleaf [8, 13]: 10
- Plant response rating, Velvetleaf [8, 14]: 10
- Plant response rating, Velvetleaf [8, 15]: 30
- Plant response rating, Velvetleaf [8, 16]: 70
